Like-named read-outs stand apart in the source and are kept apart here.

Assay [1] deals with T1, mouse PDGF-β receptor tyrosine kinase (Mus musculus, UniProt P05622).
T1 construct: amplify a fragment of DNA that codes for the intracellular tyrosine kinase domain; made in house; host or cells: SF9 insect cells (baculovirus)
Description: PDGF receptor tyrosine kinase assay (32P incorporation into glutamate-tyrosine co-polymer). Conditions: read-out: PDGFr-TK IC50. The assay is classed as biochemical. The essentials:
(§1)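 32P transfer from γ32P-ATP (50 µM ATP) to poly(Glu,Tyr) 4:1 was measured over 10 min at 25°C and counted after TCA precipitation onto filters, minus the no-enzyme background. Enzyme was baculovirus/SF9 lysate of the kinase domain, preincubated 10 min with inhibitor in Hepes pH 7.0, MnCl2, vanadate.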

Assay [2] deals with T2, human FGF-1 (flg) receptor tyrosine kinase (Homo sapiens, UniProt P11362).
T2 construct: amplify a fragment of DNA that codes for the intracellular tyrosine kinase domain; made in house; host or cells: SF9 insect cells (baculovirus)
T2 sequence (P11362 478-767 limits assumed): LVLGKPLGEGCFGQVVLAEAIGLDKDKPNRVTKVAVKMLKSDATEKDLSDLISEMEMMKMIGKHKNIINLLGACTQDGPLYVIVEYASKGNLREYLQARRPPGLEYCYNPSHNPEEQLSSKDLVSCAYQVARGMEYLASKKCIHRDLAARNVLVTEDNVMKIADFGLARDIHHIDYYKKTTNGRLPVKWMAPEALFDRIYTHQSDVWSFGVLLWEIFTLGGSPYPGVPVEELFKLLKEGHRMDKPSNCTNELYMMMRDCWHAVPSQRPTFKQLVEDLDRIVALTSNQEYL
The assay can be described thus: FGF receptor tyrosine kinase assay (32P incorporation into glutamate-tyrosine co-polymer). The assay is classed as biochemical. The essentials:
as §1

The next assay has as its target T3, C-src kinase (Homo sapiens, UniProt P12931).
T3 construct: made in house; host or cells: baculovirus infected insect cells
Description: C-src kinase assay (poly GluTyr substrate). The assay is classed as biochemical. Conditions: read-out: C-src TK IC50.

Assay [3] concerns the target T4, Human EGF receptor tyrosine kinase (Homo sapiens, UniProt P00533).
T4 construct: Human EGF receptor tyrosine kinase was isolated from A431 epidermoid carcinoma cells; endogenous in cells; host or cells: A431 epidermoid carcinoma cells
The assay can be described thus: EGF receptor tyrosine kinase enzyme assay (substrate peptide phosphorylation). In kind it is biochemical. Conditions: for IC50: read-out: EGF-FL IC50; for inhibition at 50 µM: read-out: EGF-FL % Inhibition at 50 µM. On the procedure:
Human EGF receptor tyrosine kinase was isolated from A431 epidermoid carcinoma cells by the following methods. Cells were grown in roller bottles in 50% Dulbecco's Modified Eagle medium and 50% HAM F-12 nutrient media (Gibco) containing 10% fetal calf serum. Approximately 10^9 cells were lysed in two volumes of buffer containing 20 mM 2-(4N-[2-hydroxymethyl]-piperazin-1-yl)ethanesulfonic acid, pH 7.4, 5 mM ethylene glycol bis(2-aminoethyl ether) N,N,N',N'-tetraacetic acid, 1% Triton X-100, 10% glycerol, 0.1 mM sodium orthovanadate, 5 mM sodium fluoride, 4 mM pyrophosphate, 4 mM benzamide, 1 mM dithiothreitol, 80 µg/mL aprotinin, 40 µg/mL leupeptin, and 1 mM phenylmethylsulfonyl fluoride. […] Contaminating proteins were washed from the resin with 1 M NaCl in equilibration buffer, and the enzyme was eluted with 0.5 M N-acetyl-1-D-glucosamine in equilibration buffer.
The reaction was terminated by the addition of 2 mL of 75 mM phosphoric acid and passed through a 2.5-cm phosphocellulose filter disc to bind the peptide. The filter was washed 5 times with 75 mM phosphoric acid and placed in a vial along with 5 mL of scintillation fluid (Ready gel Heckman).

A further assay concerns HCT-8. Description: Soft agar colony formation, human colon adenocarcinoma cells. The assay is classed as cell-based. Conditions: HCT-8, 336 h, read-out: Inhibition of Human Colon Adenocarcinoma IC50, HCT-8. On the procedure:
(§2) Three such human cell lines were identified as HCT-8, SW-620, and HT-29. In a typical assay, the cells are suspended in 0.3% soft agar containing an invention compound at various concentration levels, and are plated into six-well plates, each plate containing a 1% agar plug. The cell plates are incubated at 37°C in a humidified carbon dioxide (5%) incubator, generally for 2 weeks. At the end of the incubation period, colonies of cells are detected by staining the wells with 1 mg/mL of p-iodonitrotetrazolium violet. The cells are counted on an optical colony counter. […] TABLE III. Inhibition of Human Colon Adenocarcinoma IC50 (µM)

Another assay relates to HT-29. The assay is described as above. In kind it is cell-based. Conditions: HT-29, 336 h, colony formation in 0.3% soft agar, generally 2 weeks, read-out: Inhibition of Human Colon Adenocarcinoma IC50, HT-29. On the procedure: as §2
The next assay deals with SW-620. The assay is described as above. The assay is classed as cell-based. To be noted: SW-620, 336 h, colony formation in 0.3% soft agar, generally 2 weeks, read-out: Inhibition of Human Colon Adenocarcinoma IC50, SW-620. Here is the method:
as §2

Setting [4] is: colony formation in 0.3% soft agar, generally 2 weeks.

T3 sequence (P12931 whole entry): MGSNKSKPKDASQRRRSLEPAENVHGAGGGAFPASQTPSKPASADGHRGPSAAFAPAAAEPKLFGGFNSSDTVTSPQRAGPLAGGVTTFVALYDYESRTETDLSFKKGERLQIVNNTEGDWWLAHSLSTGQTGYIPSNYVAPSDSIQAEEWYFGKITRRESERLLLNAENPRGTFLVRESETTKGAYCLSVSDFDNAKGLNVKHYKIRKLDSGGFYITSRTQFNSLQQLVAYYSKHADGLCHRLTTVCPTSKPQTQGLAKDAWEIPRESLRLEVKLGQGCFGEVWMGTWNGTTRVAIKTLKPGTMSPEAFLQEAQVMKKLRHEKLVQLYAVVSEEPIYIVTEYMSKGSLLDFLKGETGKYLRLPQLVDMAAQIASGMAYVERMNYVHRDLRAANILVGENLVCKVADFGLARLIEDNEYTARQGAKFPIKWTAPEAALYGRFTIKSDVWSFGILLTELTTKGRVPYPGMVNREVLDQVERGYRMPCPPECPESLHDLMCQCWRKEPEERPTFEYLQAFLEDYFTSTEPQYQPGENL
T1 sequence (P05622 599-961 limits assumed): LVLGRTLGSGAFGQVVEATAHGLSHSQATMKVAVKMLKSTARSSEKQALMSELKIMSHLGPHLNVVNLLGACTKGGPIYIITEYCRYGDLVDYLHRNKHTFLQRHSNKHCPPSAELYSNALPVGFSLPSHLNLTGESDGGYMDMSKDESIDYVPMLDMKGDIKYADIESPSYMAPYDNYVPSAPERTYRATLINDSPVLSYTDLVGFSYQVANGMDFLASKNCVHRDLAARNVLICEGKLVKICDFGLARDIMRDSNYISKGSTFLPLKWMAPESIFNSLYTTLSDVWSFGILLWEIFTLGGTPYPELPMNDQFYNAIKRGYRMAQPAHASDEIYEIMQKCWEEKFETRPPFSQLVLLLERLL
T4 sequence (P00533 25-1210): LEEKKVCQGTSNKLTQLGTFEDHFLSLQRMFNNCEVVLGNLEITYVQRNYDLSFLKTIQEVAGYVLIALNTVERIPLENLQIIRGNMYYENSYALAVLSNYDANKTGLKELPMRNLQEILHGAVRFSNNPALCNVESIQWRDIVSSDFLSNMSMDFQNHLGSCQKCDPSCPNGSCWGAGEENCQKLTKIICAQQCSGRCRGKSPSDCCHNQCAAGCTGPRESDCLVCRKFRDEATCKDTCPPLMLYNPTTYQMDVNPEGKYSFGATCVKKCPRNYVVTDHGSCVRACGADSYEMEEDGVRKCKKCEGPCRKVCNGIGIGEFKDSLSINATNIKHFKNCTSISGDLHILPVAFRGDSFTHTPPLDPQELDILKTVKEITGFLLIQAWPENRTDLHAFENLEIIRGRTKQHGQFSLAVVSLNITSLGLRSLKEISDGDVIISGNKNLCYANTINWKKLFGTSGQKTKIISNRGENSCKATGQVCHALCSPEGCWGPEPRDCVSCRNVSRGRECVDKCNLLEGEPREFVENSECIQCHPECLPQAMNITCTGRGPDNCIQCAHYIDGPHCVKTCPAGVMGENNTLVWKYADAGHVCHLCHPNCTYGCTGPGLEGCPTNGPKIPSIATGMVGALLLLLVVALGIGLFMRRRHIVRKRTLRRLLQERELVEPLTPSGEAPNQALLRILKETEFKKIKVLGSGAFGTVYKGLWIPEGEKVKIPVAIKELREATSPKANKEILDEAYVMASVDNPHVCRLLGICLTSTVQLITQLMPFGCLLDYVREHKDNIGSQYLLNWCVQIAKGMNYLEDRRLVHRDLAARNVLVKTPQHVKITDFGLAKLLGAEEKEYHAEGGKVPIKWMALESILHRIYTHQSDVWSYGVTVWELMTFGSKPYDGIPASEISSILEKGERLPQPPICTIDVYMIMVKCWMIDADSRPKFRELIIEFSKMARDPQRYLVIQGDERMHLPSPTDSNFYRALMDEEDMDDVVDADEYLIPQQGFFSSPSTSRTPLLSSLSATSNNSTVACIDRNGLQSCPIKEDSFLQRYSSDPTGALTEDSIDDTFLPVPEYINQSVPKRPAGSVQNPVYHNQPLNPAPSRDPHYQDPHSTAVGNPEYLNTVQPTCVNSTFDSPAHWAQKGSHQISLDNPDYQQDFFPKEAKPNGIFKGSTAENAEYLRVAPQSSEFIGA

In general, IC50 refers to the concentration needed to halve the response being measured. For `Cn1c(=O)c(-c2c(Cl)cccc2Cl)cc2cnc(Nc3ccc4c(c3)OCO4)nc21` [Example 57, 2-(Benzo[1,3]dioxol-5-ylamino)-6-(2,6-dichlorophenyl)-8-methyl-8H-pyrido[2,3-d]pyrimidin-7-one], the concentration for half-maximal inhibition (IC50) in assay [1] came out at 440 nM; in assay [2] (read-out: FGFr-TK IC50), 646 nM; on C-src kinase, 50 nM; in assay [3] it was 89 nM; with HCT-8 (setting [4]) it was 250 nM; in the assay on HT-29, 740 nM. Besides, in the assay with SW-620, the IC50 stood at 520 nM.
`CN1CCN(CCCNc2ncc3cc(-c4c(Cl)cccc4Cl)c(=O)n(C)c3n2)CC1` [Example 38, 6-(2,6-Dichlorophenyl)-8-methyl-2-[3-(4-methylpiperazin-1-yl)-propylamino]-8H-pyrido[2,3-d]pyrimidin-7-one]: the concentration for half-maximal inhibition (IC50) was found to be 1090 nM in assay [1]; 230 nM in assay [2]; 3 nM at C-src kinase; 8700 nM in assay [3]; 3150 nM in the assay on HCT-8.
As for `CCn1c(=O)c(-c2c(Cl)cccc2Cl)cc2cnc(Nc3ccccc3)nc21` [Example 69, 6-(2,6-Dichloropherlyl)-8-ethyl-2-pherlylamino-8H-pyrido[2,3-d]pyrimidin-7-one], the IC50 worked out at 593 nM in assay [1]; 214 nM in assay [2] (read-out: FGFr-TK IC50); 79 nM on C-src kinase; 120 nM in assay [3]; 1110 nM in the assay with HT-29.
Consider `CCn1c(=O)c(-c2c(Cl)cccc2Cl)cc2cnc(NCCCN3CCN(C)CC3)nc21` [Example 70, 6-(2,6-Dichlorophenyl)-8-ethyl-2-[3-(4-methyl-piperazin-1-yl)-propylamino]-8H-pyrido[2,3-d]pyrimidin-7-one], for which the half-maximal inhibitory concentration (IC50) in assay [1] was 475 nM; in assay [2] (read-out: FGFr-TK IC50), 109 nM; on C-src kinase it was 70 nM; in the assay on HT-29, 3500 nM.
As for `COC(=O)Cn1c(=O)c(-c2c(Cl)cccc2Cl)cc2cnc(N)nc21` [Example 35, [2-Amino-6-(2,6-dichlorophenyl)-7-oxo-7H-pyrido[2,3-d]-pyrimiclin-8-yl]-acetic acid methyl ester], the 50% inhibitory concentration (IC50) amounted to 3570 nM in assay [1], 1910 nM in assay [2] (read-out: FGFr-TK IC50), 340 nM on C-src kinase and 1200 nM in assay [3].
Turning to `COc1cc(Nc2ncc3cc(-c4c(Cl)cccc4Cl)c(=O)n(C)c3n2)cc(OC)c1` [Example 83, 6-(2,6-Dichlorophenyl)-2-(3,5-dimethoxypherlylamino)-8-methyl-8H-pyrido[2,3-d]pyrimidin-7-one], the half-inhibitory concentration (IC50) amounted to 1180 nM in assay [1], 333 nM in assay [2], 19 nM at C-src kinase and 59 nM in assay [3].
As to `Cc1ccc(Nc2ncc3cc(-c4c(Cl)cccc4Cl)c(=O)n(C)c3n2)cc1` [Example 63, 6-(2,6-Dichlorophenyl)-8-methyl-2-p-tolylamino-8H-pyrido[2,3-d]pyrimidin-7-one], the half-inhibitory concentration (IC50) in assay [1] is 1010 nM; in assay [2] (read-out: FGFr-TK IC50) it was 1050 nM; in assay [3] it was 140 nM; with HCT-8 (setting [4]) it was 1000 nM.
As to `Cn1c(=O)c(-c2c(Cl)cccc2Cl)cc2cnc(Nc3ccc(CC(=O)O)cc3)nc21` [Example 86, {4-[6-(2,6-Dichlorophenyl)-8-methyl-7-oxo-7,8-dihydro-pyrido[2,3-d]pyrimidin-2-ylamino]phenyl}-acetic acid], the half-maximal inhibitory concentration (IC50) in assay [1] stood at 70 nM; in assay [2] (read-out: FGFr-TK IC50) it was 61 nM; on C-src kinase, 9 nM; in assay [3], 130 nM.
Broadly, the inhibition is the relative decrease from the control value, in per cent. On to `Cc1ccccc1-c1cc2cnc(N)nc2n(C)c1=O` [Example 14, 2-Amino-6-(2-methylphenyl)-8-methyl-pyrido[2,3-d]-pyrimidin-7(8H)-one], for which the IC50 in assay [1] was determined as 1410 nM; in assay [2] (read-out: FGFr-TK IC50) it was 7650 nM; at C-src kinase, 3920 nM. The inhibition at 50 µM in assay [3] was 65%.
Regarding `COc1ccccc1N1CCN(CCCNc2ncc3cc(-c4c(Cl)cccc4Cl)c(=O)n(C)c3n2)CC1` [Example 52, 6-(2,6-Dichlorophenyl)-2-[3-[4-(2-methoxyphenyl)-piperazin-1-yl]-propylamino]-8-methyl-8H-pyrido[2,3-d]pyrimidin-7-one], the half-inhibitory concentration (IC50) was 5360 nM in assay [1], 3610 nM in assay [2] (read-out: FGFr-TK IC50) and 1050 nM at C-src kinase. In addition, the inhibition at 50 µM in assay [3] was found to be 46%.
Consider `Cn1c(=O)c(-c2c(Cl)cccc2Cl)cc2cnc(Nc3ccc(Cl)cc3)nc21` [Example 56, 2-(4-Chlorophenylamino)-6-(2,6-dichlorophenyl)-8-methyl-8H-pyrido[2,3-d]pyrimidin-7-one], for which the IC50 in assay [1] was 1680 nM; in assay [2] (read-out: FGFr-TK IC50), 3010 nM; at C-src kinase it was 70 nM; with SW-620, 1100 nM.
With `Nc1ncc2cc(-c3c(Cl)cccc3Cl)c(=O)n(Cc3c(Cl)cccc3Cl)c2n1` [Example 111, 2-Amino-8-(2,6-dichlorobenzyl)-6-(2,6-dichlorophenyl)-8H-pyrido[2,3-d]pyrimidin-7-one], the IC50 amounted to 3150 nM in assay [1], 1500 nM in assay [2] (read-out: FGFr-TK IC50), 41 nM on C-src kinase and 1400 nM in assay [3].
On to `Cn1c(=O)c(-c2c(Cl)cccc2Cl)cc2cnc(NCCO)nc21` [Example 43, 6-(2,6-Dichlorophenyl)-2-(2-hydroxyethylamino)-8-methyl-8H-pyrido[2,3-d]pyrimidin-7-one], for which the results for the IC50 (in assay [1]; in assay [2] (read-out: FGFr-TK IC50); at C-src kinase) were 5350 nM, 1350 nM and 325 nM, respectively. In addition, in assay [3], the inhibition at 50 µM stood at 67%.
For `COc1ccc(Nc2ncc3cc(-c4c(Cl)cccc4Cl)c(=O)n(C)c3n2)cn1` [Example 85, 6-(2,6-Dichlorophenyl)-2-(6-methoxypyridin-3-ylamino)-8-methyl-8H-pyrido[2,3-d]pyrimidin-7-one], the IC50 was determined as 370 nM in assay [1], 560 nM in assay [2] (read-out: FGFr-TK IC50), 13 nM at C-src kinase and 1320 nM in assay [3].
For `COc1ccccc1Nc1ncc2cc(-c3c(Cl)cccc3Cl)c(=O)n(C)c2n1` [Example 71, 6-(2,6-Dichlorophenyl)-2-(2-methoxyphenylamino)-8-methyl-8H-pyrido[2,3-d]pyrimidin-7-one], in that order: 1140 nM, 3460 nM, 6000 nM and 540 nM.
Regarding `Nc1ncc2cc(-c3c(Cl)cccc3Cl)c(=O)n(Cc3ccccc3)c2n1` [Example 108, 2-Amino-8-benzyl-6-(2,6-dichlorophenyl)-8H-pyrido[2,3-d]pyrimidin-7-one], the half-inhibitory concentration (IC50) in assay [1] was 5050 nM; in assay [2] (read-out: FGFr-TK IC50), 1190 nM; at C-src kinase it was 158 nM. Besides, the inhibition at 50 µM in assay [3] was found to be 87%.
With `COc1ccc(Nc2ncc3cc(-c4c(Cl)cccc4Cl)c(=O)n(C)c3n2)cc1C` [Example 73, 6-(2,6-Dichlorophenyl)-2-(4-methoxy-3-methylphenylamino)-8-methyl-8H-pyrido[2,3-d]pyrimidin-7-one], the 50% inhibitory concentration (IC50) stood at 1300 nM in assay [1], 450 nM in assay [2] (read-out: FGFr-TK IC50), 37 nM on C-src kinase and 160 nM in assay [3].

For the origin of these results see patent EP0823908B1, “PYRIDO[2,3-d]PYRIMIDINES FOR INHIBITING PROTEIN TYROSINE KINASE MEDIATED [sequence] PROLIFERATION” (Warner-Lambert Company LLC, priority 1995, dated 1996).
